Source: patent publication US12415785B2, “Compound modulators of sting” (CTXT PTY LTD, priority 2019, dated 2025)
Where two headings read alike, the source gives them in different places.

Key:
Assay type in all cases: binding
[1] = target: T1, human STING (WT) (Homo sapiens (Human), UniProt Q86WV6, H232R); assay: Surface plasmon resonance (SPR), STING (WT); conditions: biotinylated STING on streptavidin chip, 8° C.
Procedure: Biophysical experiments were performed with three different recombinant human STING protein variants designated according to allelic nomenclature of Yi et al., (2013). Codon optimized DNA sequences (for expression in Escherichia coli) encoding amino acid residues 149 to 345 (Swiss Prot Q86WV6) of human STING (WT), human STING (HAQ) and human STING (R232H) were synthesised by GenScript USA Inc (Piscataway, New Jersey, USA). These were ligated into a modified pET43a E. coli expression vector designed to encode N-terminal His tag followed by tobacco etch virus protease (TEV) cleavage site and a STING gene sequence. The resulting protein sequences for the three allelic variants are listed below:
Binding interactions of ligands with STING proteins were quantified using Surface Plasmon Resonance (SPR) with a minimally biotinylated STING protein immobilized on a streptavidin chip surface. […] Minimal biotinylation of purified huSTING proteins was performed using a previously described methodology (Chhabra 2012). Briefly, approximately 20 nmol of recombinant STING protein in 1×TBS buffer (25 mM Tris-HCl, pH 7.5, 150 mM NaCl, 5 mM DTT) was mixed with of EZ-Link™ Sulfo-NHS-LC-LC-Biotin (Thermofisher Scientific, cat #21338) at a molar ratio of 1 to 0.6 and incubated on ice for 2 hours. To remove any unreacted biotin reagent, protein/biotin mixture was passed through a Superdex 75 (10/300 GL) column equilibrated with 10 mM HEPES, pH7.4, 150 mM NaCl, 5 mM DTT, 5%[v/v] glycerol. A protein peak containing biotinylated huSTING protein was collected and stored in aliquots at −80° C.
Streptavidin was simultaneously immobilized in all four channels of a CM5 sensor chip docked in a Biacore instrument (either Biacore S200 or Biacore T200, GE Healthcare) as described previously (Zender 2013). Minimally biotinylated STING protein was captured onto a streptavidin coated chip surface at 8° C. in SPR binding buffer (50 mM HEPES, pH 7.4, 150 mM NaCl, 2%[v/v] DMSO) by gradually injecting in a single channel at a constant flow-rate of 2 μL/min until desired capture level was achieved, typically 3000 to 7000 RU (1 RU=1 pg/mm^2).
All binding experiments were performed at 8° C. in SPR binding buffer. To determine binding affinity, compound interaction with immobilized STING protein was analysed using dose-response experiments. Fresh 10 mM DMSO solutions of compound were diluted directly into SPR binding buffer typically to a concentration of 50 μM and then further diluted 2-fold or 3-fold aiming for either a 5- or 7-point concentration series range. Each ligand concentration series was injected at a constant flow rate of 60 μL/min with a 90 second association and a 180 second dissociation time. These were modified for compounds with longer residence times, so that curves could reach steady-state, or so that compound would be fully dissociated before the subsequent injection.
Scrubber 2 (www.biologic.com.au) was utilized for data processing, where signals were referenced against the blank surface (streptavidin+D-biotin) and further corrected for DMSO refractive index change and then “double-referenced” using a buffer-blank injection (Papalia 2006). Responses were fitted to either a 1:1 steady-state affinity model or a 1:1 kinetic model (that included a mass-transport component), available within Scrubber.

[2] = target: T1, human STING (WT); assay: Differential scanning fluorimetry (DSF), huSTING (WT); conditions: read-out: DSF huSTING (WT) ΔTm (° C.)
Procedure: (§1) Biophysical experiments were performed with three different recombinant human STING protein variants designated according to allelic nomenclature of Yi et al., (2013). […] These were ligated into a modified pET43a E. coli expression vector designed to encode N-terminal His tag followed by tobacco etch virus protease (TEV) cleavage site and a STING gene sequence. The resulting protein sequences for the three allelic variants are listed below: […] Cultures were then cooled to 16° C. and protein expression induced by the addition of isopropyl β-D-1-thiogalactopyranoside to a final concentration of 0.5 mM and the cultures shaken overnight for further 16 hours. Following expression, cell cultures were centrifuged at 5000×g for 20 min and cell pellet stored frozen at −70° C. Protein purification was initiated by thawing the cell pellet in Lysis buffer (25 mM Tris-HCl pH 8.0, 300 mM NaCl, 5 mM DTT, 2 mM MgCl2, 10 mM imidazole, 0.5 mg/ml lysozyme, benzonase endonuclease [EMD Millipore], 1 mM PMSF, complete protease inhibitor tablets EDTA-free [Roche]) using a ratio of 7 ml of buffer per 1 g of cells. Cells were further lysed by 3 passes through an ice cooled Avestin C5 cell crusher and then centrifuged at 48,000×g at 4° C. […] The IMAC column was then sequentially washed with IMAC Wash buffer 1 and IMAC Wash buffer 2 (25 mM Tris-HCl pH 8.0, 300 mM NaCl, 5 mM DTT, 20 mM Imidazole) and bound His-TEV-hSTING protein eluted with IMAC Elution buffer (25 mM Tris-HCl pH 8.0, 300 mM NaCl, 5 mM DTT, 250 mM Imidazole). […] Differential scanning fluorimetry (DSF) is a rapid screening method for identifying low-molecular-weight ligands that bind and, in doing so, stabilize (or sometimes destabilize) purified proteins (Niesen 2007). DSF monitors thermal unfolding of protein in the presence of a fluorescent dye and is typically performed using a real-time PCR instrument. The temperature at which a protein unfolds is measured by an increase in the fluorescence of a dye with affinity for hydrophobic parts of the protein that are gradually being exposed during unfolding. The fluorescence of the dye is quenched in aqueous environments, but when the dye associates with hydrophobic sites on unfolded protein, its fluorescence increases. The fluorescence intensity is plotted as a function of the temperature, generating a sigmoidal curve that can be described by a two-state transition. The inflection point of the transition curve (Tm) is calculated using simple equations such as that of Boltzmann. Thermal stability of STING protein (with and without bound ligand) was measured using previously described methodology (Seabrook & Newman, 2013), with samples tested in triplicate using 96-well PCR microplate (AB Gene, ABGAB-0600/W). […] Sealed plates were placed into Bio-Rad CFX96/C1000 thermocycler and FRET scanning mode (λ^excitation of 490 nm and reads at a λ^emission of 570 nm). Melting curves were recorded from 20° C. to 100° C. in 0.5° C. increments every 30 seconds with a read at each increment. Data were analysed using “Meltdown analysis” protocol described by Rosa (2015).

[3] = target: human STING (HAQ) (Homo sapiens, UniProt Q86WV6, G230A/H232R/R293Q); assay: Differential scanning fluorimetry (DSF), huSTING (HAQ); conditions: read-out: DSF huSTING (HAQ) ΔTm (° C.)
Procedure: as §1

[4] = 2 μM protein, compound 100 μM, Tm with ligand minus Tm of protein alone (1% DMSO)

T1 sequence (Q86WV6 other isoform, or with tags, fused parts or gaps, stated change not applied): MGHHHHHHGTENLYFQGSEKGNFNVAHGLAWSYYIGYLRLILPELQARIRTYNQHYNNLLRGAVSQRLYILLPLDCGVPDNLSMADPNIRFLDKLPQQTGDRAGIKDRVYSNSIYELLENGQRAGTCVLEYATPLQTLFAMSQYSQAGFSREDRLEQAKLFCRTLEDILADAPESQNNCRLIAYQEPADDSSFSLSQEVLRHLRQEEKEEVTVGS
Chain of human STING (HAQ) (Q86WV6 whole entry G230A/H232R/R293Q, looked up): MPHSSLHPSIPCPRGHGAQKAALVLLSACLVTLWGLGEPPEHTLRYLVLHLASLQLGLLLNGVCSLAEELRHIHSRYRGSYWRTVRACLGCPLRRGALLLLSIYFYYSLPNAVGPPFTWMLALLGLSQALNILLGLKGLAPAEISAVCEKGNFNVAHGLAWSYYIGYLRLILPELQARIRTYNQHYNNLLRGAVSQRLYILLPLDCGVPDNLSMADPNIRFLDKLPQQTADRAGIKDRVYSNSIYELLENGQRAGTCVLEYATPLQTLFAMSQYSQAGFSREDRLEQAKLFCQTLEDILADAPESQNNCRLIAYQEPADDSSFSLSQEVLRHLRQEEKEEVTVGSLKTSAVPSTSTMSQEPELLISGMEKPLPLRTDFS

| SMILES | Kd [1] [µM] | ΔTm at 100 µM [2, 4] [°C] | ΔTm at 100 µM [3, 4] [°C] | ΔTm at 100 µM [2] [°C] | ΔTm at 100 µM [3] [°C] |
| --- | --- | --- | --- | --- | --- |
| COc1c(C(N)=O)ccc2c1nc(-c1c(F)cc(Cl)cc1-c1n[nH]c(=O)o1)n2CCn1c(-c2c(F)cc(Cl)cc2-c2n[nH]c(=O)o2)nc2c(OC)c(C(N)=O)ccc21 [Example 50, 1,1′-(Ethane-1,2-diyl)bis(2-(4-chloro-2-fluoro-6-(5-oxo-4,5-dihydro-1,3,4-oxadiazol-2-yl)phenyl)-4-methoxy-1H-benzo[d]imidazole-5-carboxamide)] | 0.359 | 12.5 | 26.4 | – | – |
| COC(=O)c1c(Br)cccc1-c1nc2c(OC)c(C(N)=O)ccc2n1CCn1c(-c2cccc(Br)c2C(=O)OC)nc2c(OC)c(C(N)=O)ccc21 [Example 21, Dimethyl 6,6′-(ethane-1,2-diylbis(5-carbamoyl-4-methoxy-1H-benzo[d]imidazole-1,2-diyl))bis(2-bromobenzoate)] | 5.38 | 2.33 | 5.83 | – | – |
| COc1c(C(N)=O)ccc2c1nc(-c1cccc(Br)c1C(=O)O)n2CCn1c(-c2cccc(Br)c2C(=O)O)nc2c(OC)c(C(N)=O)ccc21 [Example 36, 6,6′-(Ethane-1,2-diylbis(5-carbamoyl-4-methoxy-1H-benzo[d]imidazole-1,2-diyl))bis(2-bromobenzoic acid)] | 58 | 2.04 | 5.24 | – | – |
| COc1c(C(N)=O)ccc2c1nc(-c1ccc(Cl)cc1-c1noc(=O)[nH]1)n2CCn1c(-c2ccc(Cl)cc2-c2noc(=O)[nH]2)nc2c(OC)c(C(N)=O)ccc21 [Example 32, 1,1′-(Ethane-1,2-diyl)bis(2-(4-chloro-2-(5-oxo-4,5-dihydro-1,2,4-oxadiazol-3-yl)phenyl)-4-methoxy-1H-benzo[d]imidazole-5-carboxamide)] | > 80 | 0.51 | 3.99 | – | – |
| COc1c(C(N)=O)ccc2c1nc(-c1ccccc1-c1nn[nH]n1)n2CCn1c(-c2ccccc2-c2nn[nH]n2)nc2c(OC)c(C(N)=O)ccc21 [Example 6, 1,1′-(Ethane-1,2-diyl)bis(2-(2-(2H-tetrazol-5-yl)phenyl)-4-methoxy-1H-benzo[d]imidazole-5-carboxamide)] | 40 | 0.94 | 5.44 | – | – |
| COc1c(C(N)=O)ccc2c1nc(-c1cc(F)c(F)cc1C(=O)O)n2CCn1c(-c2cc(F)c(F)cc2C(=O)O)nc2c(OC)c(C(N)=O)ccc21 [Example 15, 6,6′-(Ethane-1,2-diylbis(5-carbamoyl-4-methoxy-1H-benzo[d]imidazole-1,2-diyl))bis(3,4-difluorobenzoic acid)] | 1000 | – | – | -0.91 | 4.78 |

More lines, main results first:

| Kd [1] [µM] | ΔTm at 100 µM [2, 4] [°C] | ΔTm at 100 µM [3, 4] [°C] | SMILES | ΔTm at 100 µM [2] [°C] | ΔTm at 100 µM [3] [°C] |
| --- | --- | --- | --- | --- | --- |
| 29.6 | -0.34 | 1.24 | COc1c(C(N)=O)ccc2c1nc(-c1c(F)cc(Cl)cc1Br)n2CCn1c(-c2c(F)cc(Cl)cc2Br)nc2c(OC)c(C(N)=O)ccc21 [Example 45, 1,1′-(Ethane-1,2-diyl)bis(2-(2-bromo-4-chloro-6-fluorophenyl)-4-methoxy-1H-benzo[d]imidazole-5-carboxamide)] | – | – |
| 11.1 | 0.88 | 13.1 | COc1c(C(N)=O)ccc2c1nc(-c1c(F)cc(F)cc1-c1n[nH]c(=O)o1)n2CCn1c(-c2c(F)cc(F)cc2-c2n[nH]c(=O)o2)nc2c(OC)c(C(N)=O)ccc21 [Example 44, 1,1′-(Ethane-1,2-diyl)bis(2-(2,4-difluoro-6-(5-oxo-4,5-dihydro-1,3,4-oxadiazol-2-yl)phenyl)-4-methoxy-1H-benzo[d]imidazole-5-carboxamide)] | – | – |
| 0.077 | 17 | 28.2 | COc1c(C(N)=O)ccc2c1nc(-c1c(Cl)cccc1C(=O)O)n2CCn1c(-c2c(Cl)cccc2C(=O)O)nc2c(OC)c(C(N)=O)ccc21 (racemic) [Example 22, 2,2′-(Ethane-1,2-diylbis(5-carbamoyl-4-methoxy-1H-benzo[d]imidazole-1,2-diyl))bis(3-chlorobenzoic acid)] | – | – |
| 5.86 | 9.63 | 18.4 | COc1c(C(N)=O)ccc2c1nc(-c1c(F)cccc1C(=O)O)n2CCn1c(-c2c(F)cccc2C(=O)O)nc2c(OC)c(C(N)=O)ccc21 [Example 10, 2,2′-(Ethane-1,2-diylbis(5-carbamoyl-4-methoxy-1H-benzo[d]imidazole-1,2-diyl))bis(3-fluorobenzoic acid)] | – | – |
| 250 | -18.4 | -15.6 | COc1c(C(N)=O)ccc2c1nc(-c1ccc(C)cc1C(=O)O)n2CCn1c(-c2ccc(C)cc2C(=O)O)nc2c(OC)c(C(N)=O)ccc21 [Example 25, 6,6′-(Ethane-1,2-diylbis(5-carbamoyl-4-methoxy-1H-benzo[d]imidazole-1,2-diyl))bis(3-methylbenzoic acid)] | – | – |
| 107 | 1.17 | 4.06 | CCc1ccc(-c2nc3c(OC)c(C(N)=O)ccc3n2CCn2c(-c3ccc(CC)cc3C(=O)O)nc3c(OC)c(C(N)=O)ccc32)c(C(=O)O)c1 [Example 33, 6,6′-(Ethane-1,2-diylbis(5-carbamoyl-4-methoxy-1H-benzo[d]imidazole-1,2-diyl))bis(3-ethylbenzoic acid)] | – | – |
